From patent publication US6903114B2, “Derivatives of naphthalene with COMT inhibiting activity” (Orion Corporation, priority 2000, dated 2005)

Biological target: T1, S-COMT enzyme (Homo sapiens, UniProt P21964)
T1 sequence (P21964 1-221 isoform P21964-2): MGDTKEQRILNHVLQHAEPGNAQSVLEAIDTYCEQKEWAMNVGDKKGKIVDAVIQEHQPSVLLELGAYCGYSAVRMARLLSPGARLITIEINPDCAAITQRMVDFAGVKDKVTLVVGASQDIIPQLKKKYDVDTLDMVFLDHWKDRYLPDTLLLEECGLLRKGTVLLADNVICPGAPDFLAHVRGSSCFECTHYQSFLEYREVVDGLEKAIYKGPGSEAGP
Experiment: Determination of COMT activity (IC50)
Assay type: biochemical
Conditions: S-COMT about 30 nM, 3 mM dopamine substrate, 0.05 mM AdoMet, 5 mM MgCl2, pH 7.4, 37° C., 15 min; HPLC
Procedure: EXPERIMENT I: Determination of COMT activity (IC50)
The determination of IC50 was performed by measuring the COMT activity in a test sample which contained S-COMT enzyme (about 30 nM), 3 mM dopamine (as the substrate of COMT), 5 mM magnesium chloride, 0.05 mM S-adenosyl-L-methionine (AdoMet) and a test compound of the invention at various concentrations in 0.1 M phosphate buffer, pH 7.4, at 37° C.
The reaction in the test sample was initiated by adding the dopamine substrate to the sample mixture and, after incubation for 15 min at 37° C., the reaction was stopped with 4 M perchloric acid and stabilized further 10 min in ice bath. Thereafter the precipitated proteins were removed by centrifugation (4000×G for 10 min). The activity of COMT enzyme was measured by determining the concentration of the reaction products, 3-methyldopamine and 4-methyldopamine, by HPLC. The results were calibrated with 3-methyldopamine standards. See also T. Lotta et al., Biochemistry, vol.34(13), 1995, p.4204. The IC50 value is the concentration of the test compound which causes a 50% decrease in COMT activity.

| SMILES | IC50 |
| --- | --- |
| CC(C)Cc1ccc2c([N+](=O)[O-])c(O)c(O)cc2c1 [Example 5, 6-Isobutyl-1-nitro-naphthalene-2,3-diol] | 45 nM |
| O=[N+]([O-])c1ccc2c([N+](=O)[O-])c(O)c(O)cc2c1 [Example 10, 1,6-Dinitro-naphthalene-2,3-diol] | 15 nM |
| O=C(c1ccccc1)c1ccc2c([N+](=O)[O-])c(O)c(O)cc2c1 [Example 3, (6,7-Dihydroxy-5-nitro-naphthalen-2-yl)-phenyl-methanone] | 80 nM |
| CC(C)C(=O)c1ccc2c([N+](=O)[O-])c(O)c(O)cc2c1 [Example 4, 1-(6,7-Dihydroxy-5-nitro-naphthalen-2-yl)-2-methyl-propan-1-one] | 25 nM |
| O=[N+]([O-])c1c(O)c(O)cc2ccccc12 [Example 1, 1-Nitronaphthalene-2,3-diol] | 30 nM |
| O=C(O)c1ccc2c([N+](=O)[O-])c(O)c(O)cc2c1 [Example 7, 6,7-Dihydroxy-5-nitro-naphthalene-2-carboxylic Acid] | 30 nM |

The next lines start with the values.

| IC50 | SMILES |
| --- | --- |
| 100 nM | N#Cc1c(O)c(O)cc2ccccc12 [Example 13, 2,3-Dihydroxy-naphthalene-1-carbonitrile] |
| 25 nM | CCCN(CCC)S(=O)(=O)c1ccc2c([N+](=O)[O-])c(O)c(O)cc2c1 [Example 11, 6,7-Dihydroxy-5-nitro-naphthalene-2-sulfonic Acid Dipropylamide] |
| 200 nM | O=Cc1c(O)c(O)cc2ccccc12 [Example 8, 2,3-Dihydroxy-naphthalene-1-carbaldehyde] |
| 80 nM | CCCCCCC(=O)c1ccc2c([N+](=O)[O-])c(O)c(O)cc2c1 [Example 9, 1-(6,7-Dihydroxy-5-nitro-naphthalen-2-yl)-heptan-1-one] |
| 140 nM | O=[N+]([O-])c1c(O)c(O)c(Br)c2ccncc12 [Example 15, 5-Bromo-6,7-dihydroxy-8-nitro-isoquinolinium; Bromide] |
| 15 nM | CN1CCN(C(=O)c2ccc3c([N+](=O)[O-])c(O)c(O)cc3c2)CC1 [Example 14, (6,7-Dihydroxy-5-nitro-naphthalen-2-yl)-(4-methyl-piperazin-1-yl)-methanone] |
